Measured values as given in EPA's ToxValDB 9.5 (doi:10.2903/j.efsa.2015.3936).

Tests used:
[1] = tested on: Anas platyrhynchos
[2] = tested on: Apis mellifera; details: acute, mortality
[3] = tested on: Daphnia magna; details: chronic/long-term; duration: 21 days; reproduction
[4] = tested on: Folsomia candida; details: chronic/long-term; duration: 28 days
[5] = tested on: Oncorhynchus mykiss; details: chronic/long-term; duration: 21 days; growth
[6] = tested on: Oryctolagus sp.; details: developmental; development
[7] = tested on: Rattus norvegicus; details: for NOAEL: chronic
[8] = tested on: Tagia sp.
[9] = tested on: Aphidius rhopalosiphi; test: LR50; higher = less toxic; details: other; mortality
[10] = tested on: Typhlodromus pyri; test: LR50; higher = less toxic; details: other; mortality

In the case of `COC(=O)c1ccccc1S(=O)(=O)NC(=O)Nc1nc(C)nc(OC)n1` [Metsulfuron-methyl], the LD50 ([1]; acute, oral, unspecified) is reported as > 2510 mg/kg-day, the NOAEL ([1]; reproductive) is reported as 100 mg/kg-day and the LC50 ([1]; short-term, oral, feed) is reported as > 1280 mg/kg-day. For the same molecule, the LD50 ([2]; dermal) was > 50 µg/piece, the LD50 ([2]; oral, unspecified) was > 44.3 µg/piece and the NOEC [3] was 3.13 mg/L. The NOEC [4] was ≥ 250 mg/kg, the NOEC [5] was 68 mg/L and the NOAEL [6] was 25 mg/kg-day. The LD50 ([7]; acute, oral, mortality) was > 5000 mg/kg-day, the NOAEL [7] was 25 mg/kg-day and the NOAEL ([7]; duration: 2 years, body weight) was 22.4 mg/kg-day. For the same molecule, the LC50 ([8]; acute, duration: 14 days, mortality) was > 1000 mg/kg, the NOEC ([8]; chronic/long-term, duration: 56 days) was 0.83 mg/kg and the LR50 [9] was > 8 g/ha. The LR50 [10] was > 8 g/ha.
